A short description of this assay: Antioxidant activity assessed as DPPH free radical scavenging activity incubated for 30 mins in dark. The assay is classed as functional. On the technique in general: DPPH is a stable violet radical that fades when it is reduced.

By IC50 is commonly meant the midpoint of a concentration-inhibition curve. `O=C1O[C@H]([C@@H](O)CO)C(O)=C1O` [ASCORBIC ACID]: the IC50 stood at 79.3 µM.

These data come from ChEMBL document CHEMBL3861944 (Medchemcomm, 2016).
